Laboratory results published in patent publication US6447767B1, “Non-myeloablative tolerogenic treatment” (Hadasit Medical Research Services and Development Ltd., priority 1997, dated 2002).
Where “and” joins values, the source holds several entries; their conditions need not be identical. Identical values can stand only once. Like-named read-outs stand apart in the source and are kept apart here.

How the values were obtained:
[1] = system: Lewis rat skin xenografts
Method: The basic protocol for conditioning prior to transplantation included sTLI (1-6 daily exposures of 200 cGy) to a total dose of up to 1,200 cGy, followed by intravenous inoculation with 3×10^7 BMC on the day after the last TLI dose. […] One day after BMC infusion, experimental mice were injected with 200 mg/kg Cy (Taro, Israel) intraperitoneally. Cy was freshly dissolved in sterile phosphate-buffered saline prior to injection. […] A second infusion of donor, after Cy, was also administered in some of the mice.
Skin grafting was carried out 20 days after completion of the tolerogenic treatment. A full-thickness skin graft measuring 1 cm×1 cm was adjusted to the graft bed by 4 Thomas surgery clips (Thomas Scientific, USA). The panniculus camosus was kept intact in the graft bed. The graft was considered to be accepted when hair of donor color grew on the soft flexible underlying skin, and rejected when donor epithelium was lost.
Two groups of mice were administered sTLI of 6 fractions of 200 cGy/day. After sTLI conditioning, both groups were administered 30×10^6 non-T cell depleted Lewis rat BMC intravenously. The first group was given a single dose of 200 mg/kg Cy the next day. Another 3×10^7 non T cell depleted rat BMC were administered the following day. In the second group, a dose of 60 mg/kg Cy was given daily for 3 days in contrast to the single 200 mg/kg dose given the first group. The first dose of Cy was given 10 hours after the first rat BMC inoculation, the second dose at 24 hours and the third dose at 48 hours (see below). After administration of three doses of 60 mg/kg Cy, a second inoculation of 3×10^7 non T cell depleted rat BMC were administered.

[2] = system: metastatic solid tumors / lymphoma; experiment: AlloCT with rIL-2 activated mismatched lymphocytes plus tumor-specific antibodies (case reports); format: in vivo, human; settings: single patients; antibody given with rIL-2 activated haploidentically mismatched lymphocytes
From the text: Donor-derived anti-cancer effector lymphocytes consisted of rIL-2 activated cells (four days activation with rIL-26,000 IU/ml) or using donor lymphocytes activated in vitro against irradiated tumor cells or host alloantigens in one way mixed lymphocyte tumor reaction or using donor lymphocytes pre-cultured with irradiated parental or other family member expressing either one of the patient's haplotypes in one way mixed lymphocyte cultures (in order to induce effector cells against inherited paternal or maternal haplotypes, to maximize anti-host alloreactivity to be used as adoptive allogeneic cell therapy (alloCT). In order to maximize anti-cancer effects, patients can be immunosuppressed with Fludarabine 25 mg/m^2×5 days. […] Following cell infusion, patients receive subcutaneously rIL-2 6×10^6 IU/m^2 in an attempt to continue to activate in vivo donor anti-tumor reactive lymphocytes. Two weeks post cell therapy, patient may receive injections of alpha interferon 3×10^6 IU every other day subcutaneously as anti-proliferative and mostly as anti-angiogenic effects to minimize or jeopardize tumor cell growth from residual tumor cells escaping alloCT.
The alloCT course was done according to the scheme described.
Both cycles of alloCT were followed with SC injections of r-IL2 6×10^6 IU for five days.

[3] = GVHD induction by B6 bone marrow in lethally irradiated SJL/J mice; format: in vivo; settings: B6 BM 30 min with 100 μg/ml, 25×10^6 per mouse, SJL/J 1,100 cGy TBI (FIG. 20)
Method: (§1) Recipients were monitored for survival and clinical signs of GVHD such as ruffled fur, diarrhea, and measurable weight loss. […], samples of liver and lung sections were obtained form each mouse to test for histological evidence of GVHD. Histological preparations were analyzed by an independent pathologist on a double blind basis.
(§2) In parallel murine experiments, culture of B6 bone marrow for 30 minutes with ASTA-Z (100 μg/ml) prior to injection (25×10^6 per mouse) into lethally irradiated (1,100 cGy of TBI) SJL/J mice reduced the capacity of the bone marrow cells to induce GVHD (FIG. 20). Similarly, culture of B6 spleen cells for 30 minutes with ASTA-Z (100 μg/ml) prior to injection (25×10^6 per mouse) into sublethally irradiated BALB/c mice (600 cGy) reduced the capacity of the spleen cells to induce GVHD (FIG. 21).

Daudi target cells = experiment: 51Cr-release lysis by killer cells generated from human PBMC with rIL-2; format: cell-based
Method: (§3) Percent lysis was calculated by the following formula: [formula]

K562 target cells = experiment: as above; format: cell-based
Method: as §3

[4] = GVHD induction by B6 spleen cells in sublethally irradiated BALB/c mice; format: in vivo; settings: B6 spleen cells 30 min with 100 μg/ml, 25×10^6 per mouse, BALB/c 600 cGy (FIG. 21)
Method: as §1, §2

[5] = system: murine P815 tumor target cells; settings: BALB/c SP or BM cells, ASTA-Z then rIL-2 6,000 IU/ml 4 days (FIG. 19)
Method: (§4) Human peripheral blood mononuclear cell (PBMC) and murine spleen or bone marrow populations were tested for their ability to lyse NK-sensitive target cells (human K562 and murine YAC-1 cells) and NK-resistant, activated NK-sensitive target cells (human Daudi and murine P815 cells) using standard ^51Cr-release assays. Briefly, ^51 Cr-labeled target cells were incubated at 37° C. with PBMC effector cells at various target cell to effector cell ratios for 4 hours. At the end of the incubation, the cells were pelleted by centrifugation and equal aliquots of supernatant were removed from each assay culture well and counted for radioactivity. Percent lysis was calculated by the following formula: [formula]
(§5) They were then harvested and tested for cytolytic activity in standard ^51Cr-release assays. While YAC-1 cells are sensitive to lysis by both NK and activated NK cells, P815 cells are not sensitive to lysis by NK cells but are sensitive to activated NK cells. […] While K562 cells are sensitive to lysis by both NK and activated NK cells, Daudi cells are not sensitive to NK cells but are sensitive to activated NK cells.

[6] = system: murine YAC-1 tumor target cells; settings: BALB/c SP or BM cells, ASTA-Z then rIL-2 6,000 IU/ml 4 days (FIG. 18)
Method: as §4, §5

[7] = system: BALB/c mouse spleen cells; experiment: Mitogen-induced T cell proliferation ([3H]-thymidine incorporation); format: cell-based
Method: Mitogen-induced T cell proliferative responses were measured by culturing spleen cells in the presence of the T cell mitogens concanavalin A (ConA, 10 μg/ml) or phytohemagglutinin (PHA, 1 μg/ml) for three days. [^3H]-thymidine was added to the cultures for the last 6 hours of culture and T cell proliferation was measured in terms of counts per minute (cpm) of [^3H]-thymidine incorporated into the DNA of the cells using cell harvesting and radioactivity techniques known to those in the art.
BALB/c spleen cells were cultured for 30 minutes at 37° C. in tissue culture medium containing 100 μg/ml of ASTA-Z and then tested for in vitro T cell responses.

[8] = sTLI, rat BMC, single 200 mg/kg Cy, second rat BMC
[9] = ASTA-Z treated PBMC cultured with IL-2 6,000 IU/ml, target:effector 1:100
[10] = human PBMC, ASTA-Z then rIL-2 6,000 IU/ml 4 days

O=P1(N(CCCl)CCCl)NCCCO1 (centres unmarked) [Cy, cyclophosphamide]
recipients that developed lethal GVHD ([1]; Cy 3 × 60 mg/kg, of the 15 recipients that accepted xenografts): 5 | Skin Graft Acceptance ([1]; sTLI, rat BMC, Cy 60 mg/kg at 10 h, 24 h, 48 h, second rat BMC): 15 of 20 and 15/20 | Lethal GVHD [1, 8]: in most of the recipients | Skin Graft Acceptance [1, 8]: 0/6 | Skin Xenograft Survival Time [1, 8]: <20 days

MabThera: monoclonal anti-CD20 antibodies
clinical outcome [2]: no evidence of disease

mafosphamide [ASTA-Z]
capacity of the bone marrow cells to induce GVHD [3]: reduced | Lysis of Daudi target cells (percentage of 51Cr released) (Daudi target cells; [9]): 42% and 71% | generation of killer cells capable of killing Daudi target cells (Daudi target cells; [10]): did not decrease | Lysis of K562 target cells (percentage of 51Cr released) (K562 target cells; [9]): 52% and 48% | generation of killer cells capable of killing K562 target cells (K562 target cells; [10]): did not decrease | capacity of the spleen cells to induce GVHD [4]: reduced | generation of killer cells capable of killing P815 target cells [5]: did not decrease | generation of killer cells capable of killing YAC-1 target cells [6]: did not decrease | in vitro proliferative responses to the T cell mitogens ConA and PHA ([7]; 100 μg/ml, 30 minutes, 37°C): elimination | Cell Proliferation, Con-A ([7]; BALB/c spleen cells, ASTA-Z 100 μg/ml 30 min 37°C and/or IL-2 1,000 IU/ml, ConA 10 μg/ml): 2,980 cpm | Cell Proliferation, PHA ([7]; BALB/c spleen cells, ASTA-Z 100 μg/ml 30 min 37°C and/or IL-2 1,000 IU/ml, PHA 1 μg/ml): 5,118 cpm | Cell Proliferation, No Mitogens ([7]; BALB/c spleen cells, ASTA-Z 100 μg/ml 30 min 37°C and/or IL-2 1,000 IU/ml, no mitogen): 219 cpm | effect of added IL-2 on inhibition of responsiveness to the mitogens ([7]; IL-2 1,000 IU/ml added to cultures of spleen cells and ASTA-Z): did not overcome inhibition

B1: Panorex: anti-epithelial cell antibodies, anti-17A (antibody, chains of the INN, looked up, V domains shown)
VH: QVQLQQSGAELVRPGTSVKVSCKASGYAFTNYLIEWVKQRPGQGLEWIGVINPGSGGTNYNEKFKGKATLTADKSSSTAYMQLSSLTSDDSAVYFCARDGPWFAYWGQGTLVTVSA
VL: NIVMTQSPKSMSMSVGERVTLTCKASENVVTYVSWYQQKPEQSPKLLIYGASNRYTGVPDRFTGSGSATDFTLTISSVQAEDLADYHCGQGYSYPYTFGGGTKLEIK
clinical outcome [2]: no evidence of disease
